Laboratory results published in patent US20250090615A1, “MULTIVITAMIN FOR AUXILIARY REGULATION OF BLOOD PRESSURE AND PREPARATION METHOD AND APPLICATION THEREOF” (Changde Jizhi Biological Technology Co., Ltd, priority 2023, published 2025).

Test system: spontaneously hypertensive rats
Experiment: Effects on spontaneously hypertensive rats (noninvasive tail artery systolic blood pressure)
Format: in vivo, rat
Conditions: 2-month-old spontaneously hypertensive rats; intragastric once a day for 6 weeks; amlodipine besylate tablets 0.05 mg/kg, multivitamin 600 mg/kg; measured 3 hours after last administration; mean ± spread, n=10
Excerpt: Experimental animals are 2-month-old spontaneously hypertensive rats.
Experimental methods are as follows. Spontaneous hypertensive rats are taken and randomly divided into a model group and respective experimental groups. Specifically, in experimental group 1, amlodipine besylate tablets are given by intragastric administration at a dose of 0.05 milligrams per kilogram (mg/kg) once a day for 6 weeks. In experimental groups 2-9, amlodipine besylate tablets are given by intragastric administration at a dose of 0.05 mg/kg, and the products of the embodiments or comparative embodiments are given by intragastric administration at a dose of 600 mg/kg once a day for 6 weeks. The model group is given the same volume of distilled water once a day for 6 weeks. At 3 hours after the last administration, systolic blood pressure data are obtained on the computer through the software of noninvasive tail artery blood pressure measuring instrument. Blood pressure of each rat is measured 6-10 times each time, and the mean value is taken as the measured systolic blood pressure of the rat.

SMILES: CCOC(=O)C1=C(COCCN)NC(C)=C(C(=O)OC)C1c1ccccc1Cl (stereo not shown) [Experimental group 1, amlodipine besylate]
- 6 weeks 3 h systolic blood pressure: 160.29 ± 2.46
